{"source": "patent US5951981A", "about": "“Thrombolytic agents with antithrombotic activity” (Diatide, Inc., priority 1996, dated 1999)", "tested_on": "human platelets in platelet-rich plasma (PRP)", "assay": "Platelet aggregation inhibition assay (ADP-induced, aggregometer)", "format": "cell-based", "details": "fresh human PRP, 250,000 platelets/μL; aggregation induced with 20 micromolar ADP at 37° C.; inhibitor added about 1 min before ADP; read-out: IC50 (concentration of inhibitor that reduced the extent of platelet aggregation by 50%)", "protocol": "Platelet aggregation studies were performed essentially as described by Zucker (1989, Methods in Enzymol. 169: 117-133). Briefly, platelet aggregation was assayed with or without putative platelet aggregation inhibitory compounds using fresh human platelet-rich plasma (PRP), comprising 250,000 platelets per microlitre. Whole human blood (36 mL) were freshly drawn from volunteers who were medication-free for at least 2 weeks prior to blood draw. Blood was drawn into 4 mL of a 0.1M sodium citrate solution and centrifuged (150 g for 20 min at 22° C.) to pellet red blood cells. The supernatant, comprising PRP, was removed and the remaining blood recentrifuged at 8000 g for 10 min to produce platelet-poor plasma (PPP; used to dilute the PRP to a final concentration of 250,000 platelets/μL). Alternatively, PPP was prepared by centrifugation of PRP for 1 min in a tabletop microcentrifuge. PPP is also used as a negative control for platelet aggregation.\nPlatelet aggregation was induced by the addition at 37° C. of a solution of adenosine diphosphate to a final concentration of 20 micromolar, and the extent of platelet aggregation monitored using a four channel aggregometer (Model IV Plus, Helena Laboratories, Beaumont, Tex.). […] Inhibition curves for a variety of disintegrins comprising the peptide sequence RGD was determined for each batch of platelets tested as positive controls.", "data": [{"substance": "CH2 CO-YD .Amp.GDCKGCG.amide [P734 peptide]", "values": [{"measurement": "IC50", "result": 67, "unit": "nM"}]}]}
